In patent US20210395239A1 (Hoffmann-La Roche Inc., priority 2018, published 2021):

What follows are compounds tested against T1, human TLR8 (Homo sapiens, UniProt Q9NR97) (assay: HEK293-Blue-hTLR-8 cells assay (SEAP reporter, R848 stimulation)). Conditions: HEK293-Blue-hTLR8 cells, R848, 20 hrs; read-out: HEK/hTLR8 IC50.
T1 construct: host or cells: HEK293 (HEK-Blue hTLR8)
T1 sequence (Q9NR97 27-1041): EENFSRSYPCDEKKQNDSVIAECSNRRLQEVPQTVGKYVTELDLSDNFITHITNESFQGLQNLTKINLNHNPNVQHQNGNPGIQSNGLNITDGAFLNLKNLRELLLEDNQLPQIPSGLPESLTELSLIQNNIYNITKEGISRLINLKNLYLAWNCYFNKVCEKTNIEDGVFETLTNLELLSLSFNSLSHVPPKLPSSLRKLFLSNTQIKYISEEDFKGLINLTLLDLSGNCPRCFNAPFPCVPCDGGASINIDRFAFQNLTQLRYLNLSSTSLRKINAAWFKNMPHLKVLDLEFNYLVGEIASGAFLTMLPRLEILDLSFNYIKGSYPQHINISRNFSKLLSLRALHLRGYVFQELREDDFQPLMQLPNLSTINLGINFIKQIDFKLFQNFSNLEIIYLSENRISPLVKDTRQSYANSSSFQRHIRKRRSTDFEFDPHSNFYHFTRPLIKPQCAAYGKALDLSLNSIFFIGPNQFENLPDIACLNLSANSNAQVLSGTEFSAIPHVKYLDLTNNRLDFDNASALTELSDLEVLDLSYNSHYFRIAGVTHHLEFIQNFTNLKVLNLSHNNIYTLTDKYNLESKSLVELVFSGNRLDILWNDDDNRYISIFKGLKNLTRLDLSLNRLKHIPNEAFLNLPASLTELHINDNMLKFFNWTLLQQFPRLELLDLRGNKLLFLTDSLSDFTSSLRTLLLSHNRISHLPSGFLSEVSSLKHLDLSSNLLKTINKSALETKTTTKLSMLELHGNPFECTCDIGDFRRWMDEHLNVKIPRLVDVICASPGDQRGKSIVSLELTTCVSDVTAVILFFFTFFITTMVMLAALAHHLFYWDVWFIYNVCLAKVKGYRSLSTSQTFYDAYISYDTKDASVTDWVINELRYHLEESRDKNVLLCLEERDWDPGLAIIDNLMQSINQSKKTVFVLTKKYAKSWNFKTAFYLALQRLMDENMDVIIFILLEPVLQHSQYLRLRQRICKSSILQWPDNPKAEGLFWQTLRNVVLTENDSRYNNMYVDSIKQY
Format: cell-based
From the text: HEK293-Blue-hTLR-8 Cells Assay:
A stable HEK293-Blue-hTLR-8 cell line was purchased from InvivoGen (Cat. #: hkb-ht1r8, San Diego, Calif., USA). These cells were originally designed for studying the stimulation of human TLR8 by monitoring the activation of NF-κB. A SEAP (secreted embryonic alkaline phosphatase) reporter gene was placed under the control of the IFN-β minimal promoter fused to five NF-κB and AP-1-binding sites. The SEAP was induced by activating NF-κB and AP-1 via stimulating HEK-Blue hTLR8 cells with TLR8 ligands. Therefore the reporter expression was declined by TLR8 antagonist under the stimulation of a ligand, such as R848, for incubation of 20 hrs. The cell culture supernatant SEAP reporter activity was determined using QUANTI-Blue™ kit (Cat. #: rep-qb1, Invivogen, San Diego, Ca, USA) at a wavelength of 640 nm, a detection medium that turns purple or blue in the presence of alkaline phosphatase.
HEK293-Blue-hTLR8 cells were incubated at a density of 250,000˜450,000 cells/mL in a volume of 170 μL in a 96-well plate in Dulbecco's Modified Eagle's medium (DMEM) containing 4.5 g/L glucose, 50 U/mL penicillin, […], […], 2 mM L-glutamine, 10% (v/v) heat-inactivated fetal bovine serum with addition of 20 μL test compound in a serial dilution in the presence of final DMSO at 1% and 10 μL of 60 uM R848 in above DMEM, perform incubation under 37° C. in a CO2 incubator for 20 hrs. Then 20 μL of the supernatant from each well was incubated with 180 μL Quanti-blue substrate solution at 37° C. for 2 hrs and the absorbance was read at 620˜655 nm using a spectrophotometer. The signaling pathway that TLR8 activation leads to downstream NF-κB activation has been widely accepted, and therefore similar reporter assay was modified for evaluating TLR8 antagonist.

SMILES | IC50 [nM]
[2H]c1ccc2c(N3C[C@H](CN4CCN(c5ccc(N6C[C@H]7C[C@@H]6CN7)nc5)CC4)O[C@H](C)C3)ccc(C#N)c2n1 [Example 153, 2-deuterio-5-[(2S,6R)-2-[[4-[6-[(1R,4R)-2,5-diazabicyclo[2.2.1]heptan-2-yl]-3-pyridyl]piperazin-1-yl]methyl]-6-methyl-morpholin-4-yl]quinoline-8-carbonitrile] | 19
[2H]c1ccc2c(N3C[C@H](CN4CCN(c5ccc(N6C[C@H](N)[C@@H](F)C6)nc5)CC4)O[C@H](C)C3)ccc(C#N)c2n1 [Example 150, 5-[(2S,6R)-2-[[4-[6-[(3S,4S)-3-amino-4-fluoro-pyrrolidin-1-yl]-3-pyridyl]piperazin-1-yl]methyl]-6-methyl-morpholin-4-yl]-2-deuterio-quinoline-8-carbonitrile] | 7
[2H]c1ccc2c(N3C[C@H](CN4CCN(c5ccc(N6C[C@@H](N)[C@H](OC)C6)nc5)CC4)O[C@H](C)C3)ccc(C#N)c2n1 [Example 143, 5-[(2S,6R)-2-[[4-[6-[(3R,4R)-3-amino-4-methoxy-pyrrolidin-1-yl]-3-pyridyl]piperazin-1-yl]methyl]-6-methyl-morpholin-4-yl]-2-deuterio-quinoline-8-carbonitrile] | 8
C[C@@H]1CN(c2ccc(C#N)c3ncccc23)C[C@H](CN2CCN(c3ccnc(N4C[C@@H](F)[C@@H](N)C4)n3)CC2)O1 [Example 95, 5-[(2S,6R)-2-[[4-[2-[(3S,4R)-3-amino-4-fluoro-pyrrolidin-1-yl]pyrimidin-4-yl]piperazin-1-yl]methyl]-6-methyl-morpholin-4-yl]quinoline-8-carbonitrile] | 3
C[C@@H]1CN(c2ccc(C#N)c3ncccc23)C[C@H](CN2CCN(c3ccnc(N4C[C@@H](N)[C@H](F)C4)n3)CC2)O1 [Example 96, 5-[(2S,6R)-2-[[4-[2-[(3R,4R)-3-amino-4-fluoro-pyrrolidin-1-yl]pyrimidin-4-yl]piperazin-1-yl]methyl]-6-methyl-morpholin-4-yl]quinoline-8-carbonitrile] | 4
[2H]c1ccc2c(N3C[C@H](CN4CC(c5ccc(N6CC(C)(N)C6)cc5)C4)O[C@H](C)C3)ccc(C#N)c2n1 [Example 141, 5-[(2S,6R)-2-[[3-[4-(3-amino-3-methyl-azetidin-1-yl)phenyl]azetidin-1-yl]methyl]-6-methyl-morpholin-4-yl]-2-deuterio-quinoline-8-carbonitrile] | 9
[2H]c1ccc2c(N3C[C@H](CN4CCN(c5ccc(N6CC(C)(N)C6)nc5)CC4)O[C@H](C)C3)ccc(C#N)c2n1 [Example 132, 5-[(2S,6R)-2-[[4-[6-(3-amino-3-methyl-azetidin-1-yl)-3-pyridyl]piperazin-1-yl]methyl]-6-methyl-morpholin-4-yl]-2-deuterio-quinoline-8-carbonitrile] | 16
Cc1ccc(N2C[C@H](CN3CCN(c4ccnc(N5CC6(CNCCO6)C5)n4)CC3)O[C@H](C)C2)c2nccnc12 [Example 126, 2-[4-[4-[[(2S,6R)-6-methyl-4-(8-methylquinoxalin-5-yl)morpholin-2-yl]methyl]piperazin-1-yl]pyrimidin-2-yl]-5-oxa-2,8-diazaspiro[3.5]nonane] | 6
CO[C@@H]1CN(c2ccc(C3CN(C[C@H]4CN(c5ccc(C#N)n6ncc(F)c56)C[C@@H](C)O4)C3)cn2)C[C@H]1N [Example 164, 4-[(2S,6R)-2-[[3-[6-[(3R,4R)-3-amino-4-methoxy-pyrrolidin-1-yl]-3-pyridyl]azetidin-1-yl]methyl]-6-methyl-morpholin-4-yl]-3-fluoro-pyrazolo[1,5-a]pyridine-7-carbonitrile] | 30
COC1CN(c2nccc(N3CCN(C[C@H]4CN(c5ccc(C#N)c6ncccc56)C[C@@H](C)O4)CC3)n2)CC1N (stereo in doubt) [Example 93, 5-[(2S,6R)-2-[[4-[2-[(3R,4S)-3-amino-4-methoxy-pyrrolidin-1-yl]pyrimidin-4-yl]piperazin-1-yl]methyl]-6-methyl-morpholin-4-yl]quinoline-8-carbonitrile] | 3
Cc1cnc(N2CCN(C[C@H]3CN(c4ccc(C#N)c5ncccc45)C[C@@H](C)O3)CC2)nc1N1CCNCC1 [Example 102, 5-[(2R,6S)-2-methyl-6-[[4-(5-methyl-4-piperazin-1-yl-pyrimidin-2-yl)piperazin-1-yl]methyl]morpholin-4-yl]quinoline-8-carbonitrile] | 2
[2H]c1ccc2c(N3C[C@H](CN4CC(c5ccc(N6C[C@@H](N)[C@H](OC)C6)nc5)C4)O[C@H](C)C3)ccc(C#N)c2n1 [Example 149, 5-[(2S,6R)-2-[[3-[6-[(3R,4R)-3-amino-4-methoxy-pyrrolidin-1-yl]-3-pyridyl]azetidin-1-yl]methyl]-6-methyl-morpholin-4-yl]-2-deuterio-quinoline-8-carbonitrile] | 12
C[C@@H]1CN(c2ccc(C#N)n3ncc(F)c23)C[C@H](CN2CC(c3ccc(N4CC(C)(N)C4)nc3)C2)O1 [Example 158, 4-[(2S,6R)-2-[[3-[6-(3-amino-3-methyl-azetidin-1-yl)-3-pyridyl]azetidin-1-yl]methyl]-6-methyl-morpholin-4-yl]-3-fluoro-pyrazolo[1,5-a]pyridine-7-carbonitrile] | 37
CO[C@H]1CN(c2cc(C)nc(N3CCN(C[C@H]4CN(c5ccc(C#N)c6nccnc56)C[C@@H](C)O4)CC3)n2)C[C@H]1N [Example 122, 8-[(2S,6R)-2-[[4-[4-[(3R,4S)-3-amino-4-methoxy-pyrrolidin-1-yl]-6-methyl-pyrimidin-2-yl]piperazin-1-yl]methyl]-6-methyl-morpholin-4-yl]quinoxaline-5-carbonitrile] | 1
[2H]c1ccc2c(N3C[C@H](CN4CC(c5ccc(N6CC(C)(N)C6)nc5)C4)O[C@H](C)C3)ccc(C#N)c2n1 [Example 138, 5-[(2S,6R)-2-[[3-[6-(3-amino-3-methyl-azetidin-1-yl)-3-pyridyl]azetidin-1-yl]methyl]-6-methyl-morpholin-4-yl]-2-deuterio-quinoline-8-carbonitrile] | 19
C[C@@H]1CN(c2ccc(C#N)c3ncccc23)C[C@H](CN2CCC(c3cccc(C4CCNCC4)c3)CC2)O1 [Example 2, 5-[(2R,6S)-2-methyl-6-[[4-[3-(4-piperidyl)phenyl]-1-piperidyl]methyl]morpholin-4-yl]quinoline-8-carbonitrile] | 26
C[C@@H]1CN(c2ccc(C#N)c3ncccc23)C[C@H](CN2CCN(c3ccnc(N4C[C@H](N)[C@@H](F)C4)n3)CC2)O1 [Example 110, 5-[(2S,6R)-2-[[4-[2-[(3S,4S)-3-amino-4-fluoro-pyrrolidin-1-yl]pyrimidin-4-yl]piperazin-1-yl]methyl]-6-methyl-morpholin-4-yl]quinoline-8-carbonitrile] | 2
[2H]c1ccc2c(N3C[C@H](CN4CCN(c5ccc(N6CC7(CNCCO7)C6)nc5)CC4)O[C@H](C)C3)ccc(C#N)c2n1 [Example 152, 2-deuterio-5-[(2R,6S)-2-methyl-6-[[4-[6-(5-oxa-2,8-diazaspiro[3.5]nonan-2-yl)-3-pyridyl]piperazin-1-yl]methyl]morpholin-4-yl]quinoline-8-carbonitrile] | 17
